These results are taken from patent US6316014A, “Microcide composition” (Centro de Bioactivos Quimicos (CBQ), priority 1996, dated 2001).

Data set [1] in a line: Water solubility and dissolution of active principle. Format: physicochemical.
The nature of data set [2]: Thermal stability of active principle. It counts as physicochemical.
Data set [3] deals with bacteria and fungi. The settings on record: EP-A 0 678 516; cited from earlier work.
The subject of data set [4] is Musa sp. The experiment in a line: Development of "in vitro" plants of Musa sp., multiplication phase (scaleup). Particulars: scaleups, standard method 1%. The protocol: An effective washout of the flasks and lids to be used in the production of in vitro plants was conducted using detergent, rinsing them with sufficient water and to then submerging the bottles in a sodium hypochlorite solution at 0.5% for a time interval never smaller than 3 minutes. Afterwards, the flasks are placed upside down and they should be used totally dry before 24 hours.
Once the culture medium is prepared and reaches a temperature of approximately 60-80° C. it is added the necessary weight of the formulation to obtain a concentration of 35 μg/ml and, then the volume required is poured into each of the flasks proceeding to the planting procedure after 24 hours.
Two scaleup studies were conducted on a Musa sp. culture in the multiplication phase. The death rate percentage during the three assays was 0.81% for the scaleups conducted adding the active principle and 1% for the standard method.
Two scaleup studies were conducted on a Musa sp. culture in the multiplication phase.

Data set [5] relates to contamination of culture media. Particulars: plants cultivated in vitro; cited from earlier work.

Each structure is given as a SMILES string.

As for `O=[N+]([O-])C(Br)=Cc1ccc(Br)o1` [1-(5-bromophur-2-yl)-2-bromo-2-nitroethene], the “Dissolution rate in an aqueous medium” value in data set [1] (aqueous medium) was “reduced dissolution rate”. Also, the Water solubility result in data set [1] (water) was “close-to-null water solubility”. Also, the “Thermally stable up to” value in data set [2] was “up to 110 °C”. For the same molecule, in data set [3], the “Antibacterial and antifungal activities” value is “powerful agent with antibacterial and antifungal activities”. For the same molecule, the Death rate percentage in data set [4] amounted to 0.81%.

Regarding `CO/N=C(\C(=O)N[C@@H]1C(=O)N2C(C(=O)O)=C(COC(C)=O)CS[C@H]12)c1csc(N)n1` [Cefotaxim], the Prevention of contamination entry in data set [5] is “without satisfactory results”.

In the case of `CN[C@@H]1[C@H](O[C@H]2[C@H](O[C@H]3[C@H](O)[C@@H](O)[C@H](NC(=N)N)[C@@H](O)[C@@H]3NC(=N)N)O[C@@H](C)[C@]2(O)CO)O[C@@H](CO)[C@H](O)[C@H]1O` [Dihydrostreptomycin], in data set [5], the Prevention of contamination entry is “without satisfactory results”.

Turning to `CO[C@@H]1[C@@H](OC(N)=O)[C@@H](O)[C@H](Oc2ccc3c(O)c(NC(=O)c4ccc(O)c(CC=C(C)C)c4)c(=O)oc3c2C)OC1(C)C` [Novobiocin], the Prevention of contamination entry in data set [5] is recorded as “without satisfactory results”.
